≈ marks a conversion by molar mass, not a printed value.
Experiments:
[1] = tested on: Staphylococcus aureus (ATCC 43300); experiment: Antibacterial MIC, broth microdilution (CLSI); type: cell-based; conditions: for S. aureus Selectivity Indices, Group / S. aureus Selectivity Index (SI): SI, IC50 (μM)/MIC80 (μM), HEK293 cytotoxicity; for S. aureus Selectivity Index (SI): numeric value; for MIC80: Staphylococcus aureus, ATCC43300, read-out: MIC80 S. aureus
[2] = tested on: Enterococcus faecalis (ATCC 51299); experiment: Antibacterial MIC, broth microdilution (CLSI); type: cell-based; conditions: for MIC80: Enterococcus faecalis, ATCC51299, read-out: MIC80 E. faecalis
[3] = tested on: Escherichia coli (ATCC 25922); experiment: Antibacterial MIC, broth microdilution (CLSI); type: cell-based; conditions: Escherichia coli, ATCC25922; read-out: MIC80 E. coli
T. vaginalis = experiment: Trichomonas resorufin assay; type: cell-based; conditions: for T. vaginalis Selectivity Indices, Group / T. vaginalis Selectivity Index (SI): SI, IC50 (μM)/IC50 (μM), HEK293 cytotoxicity; for T. vaginalis Selectivity Index (SI): numeric value; for IC50: Trichomonas vaginalis, read-out: IC50 T. vaginalis
C. neoformans (F10025) = conditions: Cryptococcus neoformans, read-out: MIC99 C. neoformans
[4] = tested on: A. fumigatus A1160 (MFIG001); conditions: Aspergillus fumigatus, read-out: MIC99 A. fumigatus A1160
[5] = tested on: Candida glabrata (ACPF3309); conditions: Nakaseomyces glabratus, read-out: MIC99 Candida glabrata
[6] = tested on: Genomic double stranded DNA (salmon); experiment: Fluorescence intercalator displacement (FID) assay, SYBR-safe probe; conditions: 20 μM compound, 30° C., lower % = stronger binding
Protocol: (§1) The ability of compounds of the invention to bind to DNA and RNA was assessed using a fluorescence intercalator displacement assay. Genomic double stranded DNA (salmon) or PolyAU double stranded RNA is treated with probe molecule (Sybr-Safe) that increases its fluorescence upon binding to nucleic acids.
(§2) polyAU RNA (Polyadenylic acid—Polyuridylic acid sodium salt, double-stranded homopolymer, P1537, Merck) or genomic DNA (Deoxyribonucleic acid sodium salt from salmon testes, D1626, Merck) was dissolved in 1 mM pH 7.4 phosphate buffer (containing 0.27 mM potassium chloride, 13.7 mM sodium chloride) to a concentration of 1 mg/mL in, SybrSafe (SYBR® Safe DNA Gel Stain, ×10,000 in DMSO, S33102 Invitrogen) was used as supplied by the manufacturer in DMSO, and compounds of the invention were prepared as 10 mM stocks in DMSO. These stock solutions were diluted appropriately with each other and 1 mM phosphate buffer to give test solutions comprised of 20 μM compound of the invention, 12500-fold dilution of SybrSafe and 3.76 ng/mL RNA/DNA. Control solutions of RNA/DNA and SybrSafe, RNA/DNA, and SybrSafe at these concentrations were also prepared. Test and control solutions were heated to 30° C. and the fluorescence of each solution was measured using the SYBER filter setting of a StepOnePlus using melt analysis mode (StepOne Software v2.3). The reduction of fluorescence due to the binding of the compound of the invention to the RNA/DNA was calculated as a normalised percentage based on the fluorescence measured due to the control with SybrSafe and RNA/DNA as maximum and the control with only SybrSafe as minimum.
(§3) A reduction in normalised % is indicative of probe displacement and thus strong nucleic acid binding.

[7] = tested on: PolyAU double stranded RNA; experiment: as above; conditions: 20 μM compound, 30° C., lower % = stronger binding
Protocol: as §1, §2, §3

[8] = SI, IC50 (μM)/MIC80 (μM), HEK293 cytotoxicity, Quaternary ammoniums

SMILES	S. aureus Selectivity Indices, Group ([1]; Quaternary ammoniums)	S. aureus Selectivity Index (SI) [1]	MIC80 [1]	MIC80 [2]	E. faecalis Selectivity Indices, Group [2, 8]	MIC80 [3]	T. vaginalis Selectivity Indices, Group (T. vaginalis; Quaternary ammoniums)	T. vaginalis Selectivity Index (SI) (T. vaginalis)	IC50 (T. vaginalis)	MIC99 (C. neoformans (F10025))	MIC99 [4]	MIC99 [5]	S. aureus Selectivity Indices, Group ([1]; Alkyl Amidines and NH Pyrroles)	% Normalised Fluorescence with gDNA [6]	% Normalised Fluorescence with polyAU RNA [7]	E. faecalis Selectivity Indices, Group ([2]; SI, IC50 (μM)/MIC80 (μM), HEK293 cytotoxicity, Alkyl Amidines and NH Pyrroles)	T. vaginalis Selectivity Indices, Group (T. vaginalis; Alkyl Amidines and NH Pyrroles)	E. faecalis Selectivity Index (SI) ([2]; SI, IC50 (μM)/MIC80 (μM), HEK293 cytotoxicity, numeric value)
CCCCC[N+](C)(C)CCNC(=O)c1cc(NC(=O)c2cc(NC(=O)c3ccc(/C=C/c4cnc5ccccc5c4)cc3)cn2C)cn1C [Ic4, (E)-N,N-dimethyl-N-(2-(1-methyl-4-(1-methyl-4-(4-(2-(quinolin-3-yl)vinyl)benzamido)-1H-pyrrole-2-carboxamido)-1H-pyrrole-2-carboxamido)ethyl)pentan-1-aminium]	D (Group D: SI > 10)	11	< 5 µM	< 5 µM	C (Group C: 2 < SI <= 5)	> 100 µM	D (Group D: SI > 3)	4	1 to 5 µM	5 to 25 µg/mL	> 50 µg/mL	5 to 25 µg/mL	–	–	–	–	–	–
CCCCCCCCCCCCCCCC[N+](C)(C)CCNC(=O)c1cc(NC(=O)c2cc(NC(=O)c3ccc(/C=C/c4cnc5ccccc5c4)cc3)cn2C)cn1C [Ic15, (E)-N,N-dimethyl-N-(2-(1-methyl-4-(1-methyl-4-(4-(2-(quinolin-3-yl)vinyl)benzamido)-1H-pyrrole-2-carboxamido)-1H-pyrrole-2-carboxamido)ethyl)hexadecan-1-aminium]	–	–	–	–	–	–	–	–	5 to 50 µM	25 to 50 µg/mL	> 50 µg/mL	> 50 µg/mL	–	–	–	–	–	–
CCCCCCCC[N+](C)(C)CCNC(=O)c1cc(NC(=O)c2cc(NC(=O)c3ccc(/C=C/c4cnc5ccccc5c4)cc3)cn2C)cn1C [Ic7, (E)-N,N-dimethyl-N-(2-(1-methyl-4-(1-methyl-4-(4-(2-(quinolin-3-yl)vinyl)benzamido)-1H-pyrrole-2-carboxamido)-1H-pyrrole-2-carboxamido)ethyl)octan-1-aminium]	D (Group D: SI > 10)	13	< 5 µM	> 100 µM	–	> 100 µM	–	–	5 to 50 µM	5 to 25 µg/mL	> 50 µg/mL	5 to 25 µg/mL	–	–	–	–	–	–
CCCCCCCCCCC[N+](C)(C)CCNC(=O)c1cc(NC(=O)c2cc(NC(=O)c3ccc(/C=C/c4cnc5ccccc5c4)cc3)cn2C)cn1C [Ic10, (E)-N,N-dimethyl-N-(2-(1-methyl-4-(1-methyl-4-(4-(2-(quinolin-3-yl)vinyl)benzamido)-1H-pyrrole-2-carboxamido)-1H-pyrrole-2-carboxamido)ethyl)undecan-1-aminium]	–	–	5 to 25 µM	> 100 µM	–	> 100 µM	–	–	5 to 50 µM	> 50 µg/mL	> 50 µg/mL	25 to 50 µg/mL	–	–	–	–	–	–
COc1ccc(/C=C/c2ccc(C(=O)Nc3cc(C(=O)Nc4cc(C(=O)NCCC(=N)NC(C)C)n(C)c4)n(C)c3)cc2)cc1 [Ia18, (E)-N-(3-imino-3-(isopropylamino)propyl)-4-(4-(4-(4-methoxystyryl)benzamido)-1-methyl-1H-pyrrole-2-carboxamido)-1-methyl-1H-pyrrole-2-carboxamide]	–	–	5 to 25 µM (≈ 3.05 to 15.2 µg/mL)	5 to 25 µM (≈ 3.05 to 15.2 µg/mL)	–	25 to 100 µM (≈ 15.2 to 61 µg/mL)	–	–	5 to 50 µM	5 to 25 µg/mL (≈ 8.2 to 41 µM)	> 50 µg/mL	–	B (Group B: 3 < SI <= 5)	6%	9%	–	–	–
CCCCCCCCCCCCCCC[N+](C)(C)CCNC(=O)c1cc(NC(=O)c2cc(NC(=O)c3ccc(/C=C/c4cnc5ccccc5c4)cc3)cn2C)cn1C [Ic14, (E)-N,N-dimethyl-N-(2-(1-methyl-4-(1-methyl-4-(4-(2-(quinolin-3-yl)vinyl)benzamido)-1H-pyrrole-2-carboxamido)-1H-pyrrole-2-carboxamido)ethyl)pentadecan-1-aminium]	–	–	–	–	–	–	–	–	5 to 50 µM	> 50 µg/mL	> 50 µg/mL	25 to 50 µg/mL	–	–	–	–	–	–
CCCCCCCCCCCC[N+](C)(C)CCNC(=O)c1cc(NC(=O)c2cc(NC(=O)c3ccc(/C=C/c4cnc5ccccc5c4)cc3)cn2C)cn1C [Ic11, (E)-N,N-dimethyl-N-(2-(1-methyl-4-(1-methyl-4-(4-(2-(quinolin-3-yl)vinyl)benzamido)-1H-pyrrole-2-carboxamido)-1H-pyrrole-2-carboxamido)ethyl)dodecan-1-aminium]	–	–	5 to 25 µM	25 to 100 µM	–	> 100 µM	–	–	5 to 50 µM	> 50 µg/mL	> 50 µg/mL	5 to 25 µg/mL	–	–	–	–	–	–
Cn1cc(NC(=O)c2cc(NC(=O)c3ccc(/C=C/c4cnc5ccccc5c4)cc3)cn2C)cc1C(=O)NCCC(=N)N1CCSCC1 [Ib7, (E)-N-(3-imino-3-thiomorpholinopropyl)-1-methyl-4-(1-methyl-4-(4-(2-(quinolin-3-yl)vinyl)benzamido)-1H-pyrrole-2-carboxamido)-1H-pyrrole-2-carboxamide]	–	26	< 5 µM	< 5 µM	–	> 100 µM	–	–	1 to 5 µM	5 to 25 µg/mL (≈ 7.41 to 37 µM)	–	5 to 25 µg/mL (≈ 7.41 to 37 µM)	D (D: SI > 10)	22%	7%	C (Group C: 5 < SI <= 10)	B (Group B: 8 < SI <= 16)	–
CCCCCCCCC[N+](C)(C)CCNC(=O)c1cc(NC(=O)c2cc(NC(=O)c3ccc(/C=C/c4cnc5ccccc5c4)cc3)cn2C)cn1C [Ic8, (E)-N,N-dimethyl-N-(2-(1-methyl-4-(1-methyl-4-(4-(2-(quinolin-3-yl)vinyl)benzamido)-1H-pyrrole-2-carboxamido)-1H-pyrrole-2-carboxamido)ethyl)nonan-1-aminium]	C (Group C: 5 < SI <= 10)	6	< 5 µM	> 100 µM	–	> 100 µM	–	–	5 to 50 µM	25 to 50 µg/mL	> 50 µg/mL	5 to 25 µg/mL	–	–	–	–	–	–
CCC[N+](C)(C)CCNC(=O)c1cc(NC(=O)c2cc(NC(=O)c3ccc(/C=C/c4cnc5ccccc5c4)cc3)cn2C)cn1C [Ic2, (E)-N,N-dimethyl-N-(2-(1-methyl-4-(1-methyl-4-(4-(2-(quinolin-3-yl)vinyl)benzamido)-1H-pyrrole-2-carboxamido)-1H-pyrrole-2-carboxamido)ethyl)propan-1-aminium]	–	–	< 5 µM	< 5 µM	–	> 100 µM	–	–	< 1 µM	5 to 25 µg/mL	> 50 µg/mL	< 5 µg/mL	–	–	–	–	–	–
CC[N+](C)(C)CCNC(=O)c1cc(NC(=O)c2cc(NC(=O)c3ccc(/C=C/c4cnc5ccccc5c4)cc3)cn2C)cn1C [Ic1, (E)-N-ethyl-N,N-dimethyl-2-(1-methyl-4-(1-methyl-4-(4-(2-(quinolin-3-yl)vinyl)benzamido)-1H-pyrrole-2-carboxamido)-1H-pyrrole-2-carboxamido)ethan-1-aminium]	–	–	< 5 µM	< 5 µM	–	> 100 µM	–	–	< 1 µM	5 to 25 µg/mL	> 50 µg/mL	5 to 25 µg/mL	–	–	–	–	–	–
CCCC[N+](C)(C)CCNC(=O)c1cc(NC(=O)c2cc(NC(=O)c3ccc(/C=C/c4cnc5ccccc5c4)cc3)cn2C)cn1C [Ic3, (E)-N,N-dimethyl-N-(2-(1-methyl-4-(1-methyl-4-(4-(2-(quinolin-3-yl)vinyl)benzamido)-1H-pyrrole-2-carboxamido)-1H-pyrrole-2-carboxamido)ethyl)butan-1-aminium]	–	–	< 5 µM	< 5 µM	D (Group D: SI > 5)	> 100 µM	D (Group D: SI > 3)	6	1 to 5 µM	5 to 25 µg/mL	> 50 µg/mL	5 to 25 µg/mL	–	–	–	–	–	11

Reference: patent US20250313546A1, “NUCLEIC ACID BINDERS” (UNIVERSITY OF STRATHCLYDE, priority 2022, published 2025)
